Data set [1] deals with GIST with KIT exon 11 primary mutations. The note with it: cited from earlier work.
Data set [2] can be described thus: Example 7: coadministration with strong CYP3A inhibitor (itraconazole), exposure. The class given is in vivo. Particulars: coadministration of ripretinib with itraconazole.
Data set [3] in a line: Example 8: coadministration with proton-pump inhibitor (pantoprazole), exposure. Type of data set: in vivo. The note with it: ripretinib coadministered with pantoprazole. The procedure: The effect of a proton-pump inhibitor on the exposure of ripretinib was evaluated.
Data set [4] can be described thus: Example 9: food effect (high-fat meal) on exposure. Type of data set: in vivo. The note with it: 150 mg dose with a high-fat meal. The procedure: The effect of a high-fat breakfast on ripretinib and Compound A exposure was evaluated. A high fat meal consisted of approximately 150, 250, and 500-600 calories from protein, carbohydrate, and fat, respectively. […] Therefore, ripretinib may be taken with or without food at approximately same time each day.

Data on 2 compounds can be found in US12318373B2, “Methods of treating gastrointestinal stromal tumors” (Deciphera Pharmaceuticals, LLC, priority 2019, dated 2025).

Take `Cc1ccc(NC(=O)c2ccc(CN3CCN(C)CC3)cc2)cc1Nc1nccc(-c2cccnc2)n1` [imatinib]: the 2-year relapse-free survival in data set [1] (adjuvant setting) is around 90%. In addition, in data set [1] (metastatic setting), the Median event-free survival result is on record as “under 2 years”.
For `CCn1c(=O)c(-c2cc(NC(=O)Nc3ccccc3)c(F)cc2Br)cc2cnc(N)cc21` [Compound A], in data set [2], the “Increase in AUC0-inf” value is reported as 99% and the “Increase in Cmax” value was “no change”. The “Difference in plasma exposure” value in data set [3] is “No clinically significant differences”. In data set [4], the “AUC0-24h higher by” value stood at 47% and the “Cmax higher by” value is on record as 66%.
